Test results reported in patent publication US7863276B2, “Salts of modulators of PPAR and methods of treating metabolic disorders” (KALYPSYS, Inc, priority 2005, dated 2011).

How the values were obtained:
Type in all cases: cell-based, murine and human
PPARδ = biological target: T1, PPARδ (UniProt Q03181); assay: PPARδ GAL4 chimera transactivation assay in CV-1 cells; conditions: transient transfection, luciferase reporter, 20-24 hours, read-out: PPAR delta
T1 sequence (Q03181 1-441): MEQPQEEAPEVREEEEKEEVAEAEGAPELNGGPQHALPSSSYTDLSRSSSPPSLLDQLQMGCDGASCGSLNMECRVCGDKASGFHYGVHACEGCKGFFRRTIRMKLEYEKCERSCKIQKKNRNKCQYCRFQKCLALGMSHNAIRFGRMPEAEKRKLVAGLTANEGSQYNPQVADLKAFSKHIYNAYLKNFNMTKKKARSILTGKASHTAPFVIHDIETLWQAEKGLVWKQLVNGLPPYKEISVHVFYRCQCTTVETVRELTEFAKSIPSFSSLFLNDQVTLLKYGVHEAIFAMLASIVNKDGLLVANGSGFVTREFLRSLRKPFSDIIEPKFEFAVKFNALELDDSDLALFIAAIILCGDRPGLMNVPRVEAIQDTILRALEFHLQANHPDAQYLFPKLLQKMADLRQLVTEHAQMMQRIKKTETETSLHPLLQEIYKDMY
Text: (§1) Compounds were screened for functional potency in transient transfection assays in CV-1 cells for their ability to activate the PPAR subtypes (transactivation assay). A previously established chimeric receptor system was utilized to allow comparison of the relative transcriptional activity of the receptor subtypes on the same synthetic response element and to prevent endogenous receptor activation from complicating the interpretation of results. See, for example, Lehmann, J. M.; Moore, L. B.; Smith-Oliver, T. A; Wilkinson, W. O.; Willson, T. M.; Kliewer, S. A., An antidiabetic thiazolidinedione is a high affinity ligand for peroxisome proliferator-activated receptor […], J. Biol. Chem., 1995, 270, 12953-6. The ligand binding domains for murine and human PPARα, PPARγ, and PPARδ are each fused to the yeast transcription factor GAL4 DNA binding domain. CV-1 cells were transiently transfected with expression vectors for the respective PPAR chimera along with a reporter construct containing four or five copies of the GAL4 DNA binding site driving expression of luciferase. […] Luciferase activity was then assayed with Britelite (Perkin Elmer) following the manufacturer's protocol and measured with either the Perkin Elmer Viewlux or Molecular Devices Acquest (see, for example, Kliewer, S. A., et. al. Cell 1995, 83, 813-819). […]

PPARγ = biological target: T2, PPARγ (UniProt P37231); assay: PPARγ GAL4 chimera transactivation assay in CV-1 cells; conditions: transient transfection, luciferase reporter, 20-24 hours, read-out: PPAR gamma
T2 sequence (P37231 1-505): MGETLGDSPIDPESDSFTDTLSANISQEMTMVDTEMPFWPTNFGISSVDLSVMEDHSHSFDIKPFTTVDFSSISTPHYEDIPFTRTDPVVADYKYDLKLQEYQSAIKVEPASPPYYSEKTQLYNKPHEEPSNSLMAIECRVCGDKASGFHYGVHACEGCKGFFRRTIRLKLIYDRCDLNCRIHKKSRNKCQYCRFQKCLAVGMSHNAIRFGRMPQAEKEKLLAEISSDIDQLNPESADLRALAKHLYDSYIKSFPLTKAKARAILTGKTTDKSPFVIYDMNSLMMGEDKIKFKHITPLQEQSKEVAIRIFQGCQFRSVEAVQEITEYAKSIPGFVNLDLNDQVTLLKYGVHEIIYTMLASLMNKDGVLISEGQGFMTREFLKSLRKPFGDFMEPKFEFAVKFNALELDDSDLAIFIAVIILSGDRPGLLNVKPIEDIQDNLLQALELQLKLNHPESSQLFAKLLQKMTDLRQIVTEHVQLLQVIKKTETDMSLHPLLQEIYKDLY
Text: as §1

PPARα = biological target: T3, PPARα (UniProt Q07869); assay: PPARα GAL4 chimera transactivation assay in CV-1 cells; conditions: transient transfection, luciferase reporter, 20-24 hours, read-out: PPAR alpha
T3 sequence (Q07869 1-468): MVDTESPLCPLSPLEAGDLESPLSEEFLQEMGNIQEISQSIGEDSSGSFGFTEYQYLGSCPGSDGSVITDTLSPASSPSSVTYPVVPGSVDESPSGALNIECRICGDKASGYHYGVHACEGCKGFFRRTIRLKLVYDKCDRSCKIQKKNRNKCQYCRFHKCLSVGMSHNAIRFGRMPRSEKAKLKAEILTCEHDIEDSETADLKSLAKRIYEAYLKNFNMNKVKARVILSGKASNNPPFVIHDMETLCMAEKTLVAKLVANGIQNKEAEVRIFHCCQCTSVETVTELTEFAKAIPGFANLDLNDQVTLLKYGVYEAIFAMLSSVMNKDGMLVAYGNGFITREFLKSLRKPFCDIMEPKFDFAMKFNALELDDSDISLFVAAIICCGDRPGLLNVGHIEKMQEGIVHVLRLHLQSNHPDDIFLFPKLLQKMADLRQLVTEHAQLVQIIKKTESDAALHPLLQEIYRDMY
Text: as §1

EC50 (PPARδ) [µM]	EC50 (PPARγ) [µM]	EC50 (PPARα) [µM]	Compound
< 5	5 to 100	> 100	C[C@@H]1CN(Cc2ccc(OC(F)(F)F)cc2)C[C@H](C)N1S(=O)(=O)c1cccc2c1C[C@@H](C(=O)O)C2 [Compound 2, (S)-4-[cis-2,6-Dimethyl-4-(4-trifluoromethoxy-benzyl)-piperazine-1-sulfonyl]-indan-2-carboxylic acid]
< 5	> 100	> 100	C[C@@H]1CN(c2ccc(OC(F)(F)F)cc2)C[C@H](C)N1S(=O)(=O)c1cccc2c1C[C@@H](C(=O)O)C2 [Compound 1, (S)-4-[cis-2,6-Dimethyl-4-(4-trifluoromethoxy-phenyl)-piperazine-1-sulfonyl]-indan-2-carboxylic acid]
